# Legend:
# Type in all cases: cell-based
# [1] = target: hERG potassium channel (Homo sapiens, UniProt Q12809, F656A); test: whole-cell patch clamp, CHO cells transiently expressing F656A hERG, high [K+]
# [2] = target: hERG potassium channel (Homo sapiens, UniProt Q12809, Y652A); test: whole-cell patch clamp, CHO cells transiently expressing Y652A hERG
# [3] = target: hERG potassium channel (Homo sapiens, UniProt Q12809); test: whole-cell patch clamp, HEK cells stably expressing hERG, tail current block
# hERG potassium channel (Homo sapiens, UniProt Q12809), sequence (Q12809 whole entry): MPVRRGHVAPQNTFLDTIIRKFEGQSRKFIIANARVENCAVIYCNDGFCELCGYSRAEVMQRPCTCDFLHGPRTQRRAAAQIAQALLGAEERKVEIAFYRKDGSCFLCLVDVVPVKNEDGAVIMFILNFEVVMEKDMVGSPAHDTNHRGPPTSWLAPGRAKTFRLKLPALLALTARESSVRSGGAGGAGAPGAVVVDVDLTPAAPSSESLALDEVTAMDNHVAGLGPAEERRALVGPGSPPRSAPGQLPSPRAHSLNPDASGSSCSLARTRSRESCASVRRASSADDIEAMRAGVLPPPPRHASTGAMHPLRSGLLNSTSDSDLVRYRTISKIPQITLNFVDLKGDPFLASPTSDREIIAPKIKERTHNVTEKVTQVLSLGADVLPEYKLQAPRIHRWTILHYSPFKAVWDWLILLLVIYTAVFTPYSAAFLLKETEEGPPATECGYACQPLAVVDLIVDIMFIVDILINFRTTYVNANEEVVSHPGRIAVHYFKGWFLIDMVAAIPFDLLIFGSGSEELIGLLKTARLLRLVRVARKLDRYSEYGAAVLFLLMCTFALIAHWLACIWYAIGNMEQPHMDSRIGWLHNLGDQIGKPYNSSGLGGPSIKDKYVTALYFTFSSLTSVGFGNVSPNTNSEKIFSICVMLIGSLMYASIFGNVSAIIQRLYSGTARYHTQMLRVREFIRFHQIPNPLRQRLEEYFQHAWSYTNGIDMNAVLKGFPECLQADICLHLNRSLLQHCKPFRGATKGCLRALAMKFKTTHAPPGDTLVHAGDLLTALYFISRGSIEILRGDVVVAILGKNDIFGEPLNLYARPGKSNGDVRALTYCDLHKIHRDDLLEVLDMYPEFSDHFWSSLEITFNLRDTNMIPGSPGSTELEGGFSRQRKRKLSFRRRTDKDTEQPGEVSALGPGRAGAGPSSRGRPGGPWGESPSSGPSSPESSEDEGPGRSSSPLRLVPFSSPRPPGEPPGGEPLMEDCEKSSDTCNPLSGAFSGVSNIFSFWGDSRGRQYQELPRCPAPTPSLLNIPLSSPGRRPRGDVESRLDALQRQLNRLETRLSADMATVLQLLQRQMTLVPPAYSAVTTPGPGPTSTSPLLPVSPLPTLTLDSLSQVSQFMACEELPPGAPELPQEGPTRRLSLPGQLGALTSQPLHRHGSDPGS
# hERG potassium channel (Homo sapiens, UniProt Q12809, Y652A), sequence (Q12809 whole entry Y652A): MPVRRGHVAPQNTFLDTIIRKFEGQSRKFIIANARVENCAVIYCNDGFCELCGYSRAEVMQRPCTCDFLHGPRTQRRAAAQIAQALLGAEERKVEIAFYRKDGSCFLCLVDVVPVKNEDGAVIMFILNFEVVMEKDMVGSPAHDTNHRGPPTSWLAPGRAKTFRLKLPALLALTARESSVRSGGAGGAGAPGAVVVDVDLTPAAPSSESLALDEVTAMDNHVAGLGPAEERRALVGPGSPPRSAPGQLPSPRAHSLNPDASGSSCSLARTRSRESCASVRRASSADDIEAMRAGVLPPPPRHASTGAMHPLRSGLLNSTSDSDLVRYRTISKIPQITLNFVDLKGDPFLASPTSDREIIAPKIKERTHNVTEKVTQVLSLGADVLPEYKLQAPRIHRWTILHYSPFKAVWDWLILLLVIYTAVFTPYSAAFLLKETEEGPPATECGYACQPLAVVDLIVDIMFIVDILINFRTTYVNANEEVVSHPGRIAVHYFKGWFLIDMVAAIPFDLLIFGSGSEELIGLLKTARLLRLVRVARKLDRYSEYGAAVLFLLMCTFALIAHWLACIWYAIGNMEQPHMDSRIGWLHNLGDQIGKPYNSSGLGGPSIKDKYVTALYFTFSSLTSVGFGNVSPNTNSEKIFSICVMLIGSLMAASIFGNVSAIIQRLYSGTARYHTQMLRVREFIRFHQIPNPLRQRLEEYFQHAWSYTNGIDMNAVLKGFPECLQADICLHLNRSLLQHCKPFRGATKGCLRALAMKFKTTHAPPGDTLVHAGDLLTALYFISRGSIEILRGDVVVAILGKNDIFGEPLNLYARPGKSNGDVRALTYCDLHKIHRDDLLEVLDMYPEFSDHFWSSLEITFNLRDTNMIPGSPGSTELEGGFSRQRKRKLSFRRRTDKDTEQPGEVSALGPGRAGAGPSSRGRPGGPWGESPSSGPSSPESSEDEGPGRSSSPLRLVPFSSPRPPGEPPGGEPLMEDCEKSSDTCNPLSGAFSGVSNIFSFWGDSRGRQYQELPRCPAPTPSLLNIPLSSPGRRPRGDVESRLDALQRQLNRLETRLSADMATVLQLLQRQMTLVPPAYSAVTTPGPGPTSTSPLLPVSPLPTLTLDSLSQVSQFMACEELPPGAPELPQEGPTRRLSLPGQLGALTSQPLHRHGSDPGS
# hERG potassium channel (Homo sapiens, UniProt Q12809, F656A), sequence (Q12809 whole entry F656A): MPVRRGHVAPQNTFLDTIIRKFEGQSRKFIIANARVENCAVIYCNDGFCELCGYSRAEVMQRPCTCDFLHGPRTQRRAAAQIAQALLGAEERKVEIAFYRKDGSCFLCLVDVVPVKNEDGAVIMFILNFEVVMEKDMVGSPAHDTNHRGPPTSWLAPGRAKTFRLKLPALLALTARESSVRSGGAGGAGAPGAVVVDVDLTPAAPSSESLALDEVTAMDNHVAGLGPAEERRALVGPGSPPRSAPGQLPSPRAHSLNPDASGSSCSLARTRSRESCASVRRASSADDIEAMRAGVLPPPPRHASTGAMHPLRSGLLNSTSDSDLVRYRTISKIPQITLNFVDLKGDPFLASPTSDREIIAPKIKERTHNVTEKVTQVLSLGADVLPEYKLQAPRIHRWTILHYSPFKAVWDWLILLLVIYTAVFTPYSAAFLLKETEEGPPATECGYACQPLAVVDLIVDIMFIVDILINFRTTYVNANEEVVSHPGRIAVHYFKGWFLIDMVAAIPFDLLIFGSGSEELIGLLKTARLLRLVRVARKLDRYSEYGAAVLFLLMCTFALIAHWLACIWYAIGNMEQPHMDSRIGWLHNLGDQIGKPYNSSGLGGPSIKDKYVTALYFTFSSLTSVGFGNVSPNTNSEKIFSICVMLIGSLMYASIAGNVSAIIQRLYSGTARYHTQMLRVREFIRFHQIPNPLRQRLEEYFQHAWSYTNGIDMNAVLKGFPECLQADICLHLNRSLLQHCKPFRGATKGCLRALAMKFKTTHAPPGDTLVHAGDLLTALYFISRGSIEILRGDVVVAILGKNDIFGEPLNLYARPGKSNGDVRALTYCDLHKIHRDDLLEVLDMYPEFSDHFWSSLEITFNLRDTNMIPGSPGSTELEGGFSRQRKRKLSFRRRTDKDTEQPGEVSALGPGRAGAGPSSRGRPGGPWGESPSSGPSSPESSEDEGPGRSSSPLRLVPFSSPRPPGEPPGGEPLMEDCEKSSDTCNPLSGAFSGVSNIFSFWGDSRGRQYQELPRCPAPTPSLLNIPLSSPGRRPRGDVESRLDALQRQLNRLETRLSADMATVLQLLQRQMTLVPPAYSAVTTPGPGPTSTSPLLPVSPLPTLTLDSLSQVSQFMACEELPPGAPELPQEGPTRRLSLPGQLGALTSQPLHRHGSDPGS
structure (smiles),measurement,setting,value
Cc1cccc(C)c1OCC(C)N (stereo not drawn) [mexiletine],IC50,[1],111 ± 1.8 µM
same,IC50,[2],41.6 ± 6.6 µM
same,IC50,[3],3.7 ± 0.7 µM
